# Reference: patent US20110135588A1, “Hair Conditioning Composition Comprising Quaternized Silicone Polymer, Silicone Copolymer, and Carbamate” (priority 2009, published 2011)
# Experiment: Product appearance (compatibility with the quaternized silicone polymer and/or solvent thereof): silicone particle size observed by microscope
# Format: physicochemical
# Conditions: preservative used together with quaternized silicone polymer and its solvent
# Experimental: Product Appearance (Compatibility with the Quaternized Silicone Polymer and/or Solvent Thereof)
# Product appearance is evaluated as follows, by silicone particle size in compositions which was observed using micro scope.
# Pass: Average silicone particle size is 200 μm or less
# Fail: Average silicone particle size is above 200 μm (excluding 200 μm)
row,SMILES,Agglomeration of quaternized silicone polymer (product appearance)
1,C/C=C/C=C/C(=O)[O-].[K+] [potassium sorbate],form agglomerates
2,O=C(O)c1ccccc1O [salicylic acid],form agglomerates
